Test results: patent US12077503B2, “Substituted cyclic amides and their use as herbicides” (FMC CORPORATION, priority 2015, dated 2024)

Columns and labels:
Experiment in all cases: Test F flooded paddy test
Type in all cases: in vivo
Settings in all cases: Flood
[1] = system: waterplantain (common waterplantain, Alisma plantago-aquatica)
Text: (§1) Plant species in the flooded paddy test consisted of one stand of 9 or 10 water seeded rice seedlings (Rice, W. S. Jap, Oryza sativa cv. ‘Japonica—M202’ or Rice, W. S. Ind, ‘Indica’), and two stands of 3 or 4 transplanted rice seedlings (Oryza sativa cv. ‘Japonica—M202’), Monochoria (Monochoria vaginalis), sedge, umbrella (small-flower umbrella sedge, Cyperus difformis), hardstem bulrush (Scirpus juncoides), redstem (purple redstem, Ammannia coccinea), rice flatsedge (Cyperus iria), bearded sprangletop (Leptochloa fascicularis), barnyardgrass (Echinochloa crus-galli), waterplantain (common waterplantain, Alisma plantago-aquatica), and late watergrass (Echinochloa oryzicola) grown to the 2 to 2.5 leaf stage for testing. Potted plants were grown in a greenhouse with day/night temperature settings of 30/27° C., and supplemental balanced lighting was provided to maintain a 16-hour photoperiod. At time of treatment, test pots were flooded to 3 cm above the soil surface, treated by application of test compounds directly to the paddy water, and then maintained at that water depth for the duration of the test. Effects of treatments on rice and weeds were visually evaluated by comparison to untreated controls after 21 d. Plant response ratings, summarized in Table F, are based on a scale of 0 to 100 where 0 is no effect and 100 is complete control. A dash (-) response means no test result.

[2] = system: redstem (purple redstem, Ammannia coccinea)
Text: as §1

[3] = system: Monochoria (Monochoria vaginalis); design: key: 0 = no effect, 100 = complete control
[4] = system: bearded sprangletop (Leptochloa fascicularis); design: key: 0 = no effect, 100 = complete control
[5] = system: late watergrass (Echinochloa oryzicola); design: key: 0 = no effect, 100 = complete control
[6] = system: rice flatsedge (Cyperus iria); design: key: 0 = no effect, 100 = complete control
[7] = system: sedge, umbrella (small-flower umbrella sedge, Cyperus difformis); design: key: 0 = no effect, 100 = complete control
[8] = system: water seeded rice seedlings (Rice, W. S. Jap, Oryza sativa cv. ‘Japonica—M202’); design: key: 0 = no effect, 100 = complete control
[9] = system: transplanted rice seedlings (Oryza sativa cv. ‘Japonica—M202’); design: key: 0 = no effect, 100 = complete control
[10] = system: barnyardgrass (Echinochloa crus-galli); design: key: 0 = no effect, 100 = complete control

Cc1ccc(C2CN(C)C(=O)C2C(=O)Nc2ccccc2F)cc1F (stereo not shown) [Compound 465]
50: Plant response rating: Monochoria ([3]; 32 g ai/ha)
100: Plant response rating: Waterplantain ([1]; 250 g ai/ha) | Plant response rating: Monochoria ([3]; 125 g ai/ha) | Plant response rating: Monochoria ([3]; 250 g ai/ha) | Plant response rating: Watergrass, Late ([5]; 125 g ai/ha) | Plant response rating: Watergrass, Late ([5]; 250 g ai/ha) | Plant response rating: Barnyardgrass ([10]; 32 g ai/ha) | Plant response rating: Barnyardgrass ([10]; 64 g ai/ha) | Plant response rating: Barnyardgrass ([10]; 125 g ai/ha) | Plant response rating: Barnyardgrass ([10]; 250 g ai/ha)
75: Plant response rating: Monochoria ([3]; 64 g ai/ha)
90: Plant response rating: Waterplantain ([1]; 125 g ai/ha)
00: Plant response rating: Watergrass, Late ([5]; 64 g ai/ha)
40: Plant response rating: Waterplantain ([1]; 64 g ai/ha)
35: Plant response rating: Rice, Water Seed. ([8]; 125 g ai/ha)
15: Plant response rating: Rice, Transplanted ([9]; 250 g ai/ha)
85: Plant response rating: Sprangletop, Brdd. ([4]; 32 g ai/ha) | Plant response rating: Sprangletop, Brdd. ([4]; 64 g ai/ha) | Plant response rating: Watergrass, Late ([5]; 32 g ai/ha)
60: Plant response rating: Rice, Water Seeded ([8]; 250 g ai/ha)
0: Plant response rating: Waterplantain ([1]; 32 g ai/ha) | Plant response rating: Redstem ([2]; 32 g ai/ha) | Plant response rating: Redstem ([2]; 64 g ai/ha) | Plant response rating: Redstem ([2]; 125 g ai/ha) | Plant response rating: Flatsedge, Rice ([6]; 32 g ai/ha) | Plant response rating: Flatsedge, Rice ([6]; 64 g ai/ha) | Plant response rating: Flatsedge, Rice ([6]; 125 g ai/ha) | Plant response rating: Flatsedge, Rice ([6]; 250 g ai/ha) | Plant response rating: Sedge, Umbrella ([7]; 32 g ai/ha) | Plant response rating: Sedge, Umbrella ([7]; 64 g ai/ha) | Plant response rating: Sedge, Umbrella ([7]; 125 g ai/ha) | Plant response rating: Sedge, Umbrella ([7]; 250 g ai/ha) | Plant response rating: Rice, Water Seeded ([8]; 32 g ai/ha) | Plant response rating: Rice, Water Seed. ([8]; 64 g ai/ha) | Plant response rating: Rice, Transplanted ([9]; 32 g ai/ha) | Plant response rating: Rice, Transplanted ([9]; 64 g ai/ha) | Plant response rating: Rice, Transplanted ([9]; 125 g ai/ha)
95: Plant response rating: Sprangletop, Brdd. ([4]; 125 g ai/ha) | Plant response rating: Sprangletop, Brdd. ([4]; 250 g ai/ha)
45: Plant response rating: Redstem ([2]; 250 g ai/ha)
